Measured values from patent US11731965B2, “Tetrahydroprotoberberine compound, preparation method therefor and uses thereof, and pharmaceutical composition” (SHANGHAI INSTITUTE OF MATERIA MEDICA, CHINESE ACADEMY OF …, priority 2017, dated 2023).
Where a name gives a salt, the structure may show the parent alone.

Tests used:
[1] = molecular target: T1, human recombinant D1 receptor (Homo sapiens, UniProt P21728); assay: D1 antagonistic activity test (LANCE cAMP, antagonism of dopamine-induced cAMP production in HEK293 cells); type: cell-based; details: HEK293 cells expressing human recombinant D1 receptor; test concentration 0.1 nM to 10000 nM; read-out: D1 Antagonistic Activity (IC50, nmol/L)
T1 construct: expressed in transfected cells; host or cells: HEK293
T1 sequence (P21728 whole entry): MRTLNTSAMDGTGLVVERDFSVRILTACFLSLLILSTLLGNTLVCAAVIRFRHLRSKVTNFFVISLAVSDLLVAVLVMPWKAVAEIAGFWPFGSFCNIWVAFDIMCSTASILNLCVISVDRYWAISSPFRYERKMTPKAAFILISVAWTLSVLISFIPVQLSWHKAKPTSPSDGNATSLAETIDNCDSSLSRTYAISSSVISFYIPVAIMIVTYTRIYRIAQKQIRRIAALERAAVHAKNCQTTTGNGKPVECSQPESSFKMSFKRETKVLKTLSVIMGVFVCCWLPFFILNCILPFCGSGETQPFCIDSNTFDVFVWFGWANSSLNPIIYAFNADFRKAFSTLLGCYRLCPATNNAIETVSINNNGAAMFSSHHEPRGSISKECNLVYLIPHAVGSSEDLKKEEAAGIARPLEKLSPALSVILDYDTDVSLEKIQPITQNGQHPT
Description: • 1) D1 antagonistic activity test
The D1 antagonism of the compound was evaluated by testing the antagonistic action of the compounds against dopamine on the induction of cAMP production in HEK293 cells. The cAMP concentration test was performed according to the method described in the kit instructions. The test concentration of the compound was 0.1 nM to 10000 nM. SCH23390 was used as a positive control. The IC50 was calculated by Excelfit software.

[2] = molecular target: T2, human recombinant D2 receptor (Homo sapiens, UniProt P14416); assay: D2 antagonistic activity test (LANCE cAMP, antagonism of dopamine inhibition of cAMP production in HEK293 cells); type: cell-based; details: HEK293 cells expressing human recombinant D2 receptor; test concentration 0.1 nM to 10000 nM; read-out: D2 Antagonistic Activity (IC50, nmol/L)
T2 construct: expressed in transfected cells; host or cells: HEK293
T2 sequence (P14416 whole entry): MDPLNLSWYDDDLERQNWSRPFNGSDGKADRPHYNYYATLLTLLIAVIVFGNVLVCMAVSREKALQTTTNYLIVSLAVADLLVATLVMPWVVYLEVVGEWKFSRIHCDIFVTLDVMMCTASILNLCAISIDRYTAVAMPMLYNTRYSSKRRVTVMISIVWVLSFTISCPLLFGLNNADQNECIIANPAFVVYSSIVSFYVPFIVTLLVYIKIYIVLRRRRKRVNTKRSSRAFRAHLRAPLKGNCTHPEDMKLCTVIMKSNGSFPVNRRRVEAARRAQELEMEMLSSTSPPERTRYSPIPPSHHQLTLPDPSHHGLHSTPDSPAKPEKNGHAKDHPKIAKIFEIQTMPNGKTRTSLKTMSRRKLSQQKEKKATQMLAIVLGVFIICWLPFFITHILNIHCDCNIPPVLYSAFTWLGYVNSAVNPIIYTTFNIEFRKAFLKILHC
Description: LANCE™ cAMP 384 Kit (PerkinElmer, USA) was used to test the antagonism of the compound against the D1 receptor using the HEK293 cells expressing human recombinant D1 receptor. The D1 antagonism of the compound was evaluated by testing the antagonistic action of the compounds against dopamine on the induction of cAMP production in HEK293 cells. The cAMP concentration test was performed according to the method described in the kit instructions. The test concentration of the compound was 0.1 nM to 10000 nM. SCH23390 was used as a positive control. The IC50 was calculated by Excelfit software. The test results of some compounds were shown in Table 1. • 2) D2 antagonistic activity test LANCE™ cAMP 384 Kit (PerkinElmer, USA) was used to test the antagonism of the compound against the D2 receptor using the HEK293 cells expressing human recombinant D2 receptor. The D2 antagonism of the compound was evaluated by testing the antagonistic action of the compounds against dopamine on the inhibition of cAMP production in HEK293 cells. The cAMP concentration test was performed according to the method described in the kit instructions. The test concentration of the compound was 0.1 nM to 10000 nM. Risperidone was used as a positive control. The IC50 was calculated by Excelfit software. The test results of some compounds were shown in Table 1 (ND means the test was not performed).

[3] = tested on: PCP-induced high spontaneous activity in mice; assay: PCP-induced high spontaneous activity test in mice; type: in vivo, Male ICR mice; details: dose by gavage that significantly reduces PCP (7 mg/kg ip) induced high spontaneous activity of mice vs model group
Description: PCP (phencylidine) was dissolved in physiological saline to prepare a 7 mg/kg solution. The test compound was formulated with a 0.5% CMC-Na solution to a solution with suitable concentration, ready-to-use. Male ICR mice were 18-22 g. Mice were randomly divided into a solvent control group, a model control group, a positive control group, and each test drug group during the test. There were 8 mice in each group. Mice in each group were given each test drug by gavage. 45 minutes after the test drug was administered, mice were injected with a PCP (7 mg/kg) solution intraperitoneally. The spontaneous, open field video analysis system was used to record the mouse movement trajectory within 45 min after administration of test drug or saline, and then the mouse movement trajectory within 75 min after PCP administration. Spontaneous, open field video analysis system was used to analyze the mouse's movement trajectory, and the total distance of the movement of the mice in each group was counted. The result was expressed as mean±SD. Results were analyzed by one-way analysis of variance.

SMILES	IC50 [1] [nmol/L]	IC50 [2] [nmol/L]	Effective Dose [3] [mg/kg]
COc1cc2c(cc1C)[C@@H]1Cc3ccc(OC)c(OC)c3CN1CC2 [Example 1, (S)-2-methyl-3,9,10-trimethoxy-6,8,13,13a-tetrahydro-5H-dibenzo[a,g] quinolizine]	34.9	620	20
CCCc1cc2c(cc1OC)CCN1Cc3c(ccc(OC)c3OC)C[C@@H]21 [Example 2, (S)-2-n-propyl-3,9,10-trimethoxy-6,8,13,13a-tetrahydro-5H-dibenzo [a,g] quinolizine]		280	20
COc1cc2c(cc1C#N)[C@@H]1Cc3ccc(OC)c(OC)c3CN1CC2 [Example 4, (S)-2-cyano-3,9,10-trimethoxy-6,8,13,13a-tetrahydro-5H-dibenzo [a,g] quinolizine]	310	950	
COc1cc2c(cc1C=O)[C@@H]1Cc3ccc(OC)c(OC)c3CN1CC2 [Example 6, (S)-2-formyl-3,9,10-trimethoxy-6,8,13,13a-tetrahydro-5H-dibenzo[a,g] quinolizine]	49	210	
COc1cc2c(cc1CO)[C@@H]1Cc3ccc(OC)c(OC)c3CN1CC2 [Example 7, (S)-2-hydroxymethyl-3,9,10-trimethoxy-6,8,13,13a-tetrahydro-5H-dibenzo[a,g] quinolizine]	61	770	10
COc1cc2c(cc1N)[C@@H]1Cc3ccc(OC)c(OC)c3CN1CC2 [Example 13, (S)-2-amino-3,9,10-trimethoxy-6,8,13,13a-tetrahydro-5H-dibenzo [a,g] quinolizine hydrochloride]	140	280	10
COc1cc2c(cc1Br)[C@@H]1Cc3ccc(OC)c(OC)c3CN1CC2 [Example 15, (S)-2-bromo-3,9,10-tritmethoxy-6,8,13,13a-tetrahydro-5H-dibenzo [a,g] quinolizine]	120	550	
C=Cc1cc2c(cc1OC)CCN1Cc3c(ccc(OC)c3OC)C[C@@H]21 [Example 17, (S)-2-vinyl-3,9,10-trimethoxy-6,8,13,13a-tetrahydro-5H-dibenzo [a,g] quinolizine]	240	150	20
COc1cc2c(cc1CCO)[C@@H]1Cc3ccc(OC)c(OC)c3CN1CC2 [Example 18, (S)-2-hydroxyethyl-3,9,10-trimethoxy-6,8,13,13a-tetrahydro-5H-dibenzo[a,g] quinolizine]	390	610	20
COc1cc2c(cc1OC)[C@@H]1Cc3ccc(OC)c(C#N)c3CN1CC2 [Example 19, (S)-2,3,10-trimethoxy-9-cyano-6,8,13,13a-tetrahydro-5H-dibenzo [a,g] quinolizine]	1300		20
COc1cc2c(cc1OC)[C@@H]1Cc3ccc(OC)c(C=O)c3CN1CC2 [Example 24, (S)-2,3,10-trimethoxy-9-formyl-6,8,13,13a-tetrahydro-5H-dibenzo [a,g] quinolizine]	1300		
COc1cc2c(cc1OC)[C@@H]1Cc3ccc(OC)c(CO)c3CN1CC2 [Example 25, (S)-2,3,10-trimethoxy-9-hydroxymethyl-6,8,13,13a-tetrahydro-5H-dibenzo[a,g] quinolizine]	1700	2300	20
COc1cc2c(cc1OC)[C@@H]1Cc3ccc(C)c(OC)c3CN1CC2 [Example 26, (S)-2,3,9-trimethoxy-10-methyl-6,8,13,13a-tetrahydro-5H-dibenzo [a,g] quinolizine]		940	
COc1cc2c(cc1OC)[C@@H]1Cc3ccc(C(N)=O)c(OC)c3CN1CC2 [Example 28, (S)-2,3,9-trimethoxy-10-carbamoyl-6,8,13,13a-tetrahydro-5H-dibenzo[a,g] quinolizine]	2160		
COc1cc2c(cc1OC)[C@@H]1Cc3ccc(C=O)c(OC)c3CN1CC2 [Example 29, (S)-2,3,9-trimethoxy-10-formyl-6,8,13,13a-tetrahydro-5H-dibenzo [a,g] quinolizine]		2500	
COc1cc2c(cc1OC)[C@@H]1Cc3ccc(CO)c(OC)c3CN1CC2 [Example 30, (S)-2,3,9-trimethoxy-10-hydroxymethyl-6,8,13,13a-tetrahydro-5H-dibenzo[a,g] quinolizine]	1080	510	
COc1cc2c(cc1OC)[C@@H]1Cc3ccc(CNC(C)=O)c(OC)c3CN1CC2 [Example 32, (S)-2,3,9-trimethoxy-10-acetaminomethyl-6,8,13,13a-tetrahydro-5H-dibenzo[a,g] quinolizine]		663	
COc1cc2c(cc1N)[C@@H]1Cc3ccc(N)c(OC)c3CN1CC2 [Example 33, (S)-2,10-diamino-3,9-dimethoxy-6,8,13,13a-tetrahydro-5H-dibenzo [a,g] quinolizine]	270	440	20
COc1cc2c(cc1NC(C)=O)[C@@H]1Cc3ccc(NC(C)=O)c(OC)c3CN1CC2 [Example 34, (S)-2,10-di(acetamino)-3,9-dimethoxy-6,8,13,13a-tetrahydro-5H-dibenzo[a,g] quinolizine]			20
COc1ccc2c(c1OC)CN1CCc3cc(OC)c4[nH]c(=S)[nH]c4c3[C@@H]1C2 [Example 41, (S)-4,10,11-trimethoxy-3,6,7,9,14,14a-Hexahydroimidazo[4,5-h] isoquinolino [3,2-a]isoquinoline-2(1H)-thione]		20	3
COc1ccc2c(c1OC)CN1CCc3cc(OC)c4nn[nH]c4c3[C@@H]1C2 [Example 43, (S)-4,10,11-trimethoxy-1,6,7,9,14,14a-hexahydroisoquinolino[3,2-a] [1,2,3]triazolo[4,5-h]isoquinoline]		54	
COc1ccc2c(c1OC)CN1CCc3cc4nc[nH]c4cc3C1C2 (stereo not drawn) [Example 44, 9,10-Dimethoxy-1,5,6,8,13,13a-hexahydroimidazo[4,5-g]isoquinolino [3,2-a]isoquinoline]	672	139	
COc1ccc2c(c1OC)CN1CCc3cc4ncoc4cc3C1C2 (stereo not drawn) [Example 45, 9,10-Dimethoxy-6,8,13,13a-tetrahydro-5H-isoquinolino[3,2-a] oxazolo[4,5-g]isoquinoline]	116		
COc1ccc2c(c1OC)CN1CCc3ccc4oc(=O)[nH]c4c3C1C2 (stereo not drawn) [Example 49, 10,11-Dimethoxy-6,7,14,14a-tetrahydro-1H-isoquinolino[3,2-a] oxazolo[5,4-h] isoquinoline-2 (9H)-one]	219		10
COc1ccc2c(c1OC)CN1CCc3ccc4c(c3C1C2)NC(=O)CO4 (stereo not drawn) [Example 50, 11,12-Dimethoxy-3,7,8,10,15,15a-hexahydroisoquinolino[3,2-a][1,4] oxazino [2,3-h]isoquinoline-2(1H)-one]	855		10
COc1cc2c(cc1OC(F)F)[C@@H]1Cc3ccc(OC)c(OC)c3CN1CC2 [Example 51, (S)-2-(difluoromethoxy)-3,9,10-trimethoxy-6,8,13,13a-tetrahydro-5H-dibenzo[a,g] quinolizine]		390	
COc1cc2c(cc1OCCO)[C@@H]1Cc3ccc(OCCO)c(OC)c3CN1CC2 [Example 55, (S)-2,10-di(hydroxyethoxy)-3,9-dimethoxy-6,8,13,13a-tetrahydro-5H-dibenzo [a,g] quinolizine]	443		
